Laboratory results taken from the supplement of paper PMC11208160.

Test: recombinant barcode read abundance after kanamycin selection (control-corrected) (log10(CPM+1)); higher = more efficient recombination; sequences stand for … in AGTGCAGAGAAAATCGGCCAGTTTTCTCTGCCTGCAGTCCGCATGCCGT…ATTTATGCAGCGGACTGCCTTTCTCCCAAAGTGATAAACCGGACAGTATCATGGACCGGTTTTCCCGGTAATCCGTATTTGCAAGGTTGGTTTCACT; site = the 11-nt target
Description: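 Same pooled E. coli target screen (IS621 bridge recombinase, kanamycin selection, control-corrected CPM, mean of 2 biological replicates). Here the two core-binding nucleotides of the LTG and RTG of the bridge RNA target-binding loop are mutated. Target and donor CT cores are held constant, and the other 9 guide positions match the target. The target is read from the library oligo sequence. Molecule = full bridge RNA written as DNA: nt 1-80 from the library oligo, rest WT scaffold.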

“ACGGGACTATGGGTTCTAACCTGTTGCAGTA [ACGGGACCTCT_LTGcore_TA_RTGcore_TA] (site ACGGGACCTCT) (LTG core: TA, RTG core: TA)” and “AGGAGGTAATGGGTTCTAACCTGTTGCCTTT [AGGAGGTCTAG_LTGcore_AA_RTGcore_AA] (site AGGAGGTCTAG) (LTG core: AA, RTG core: AA)” are within 0.2 log units of each other in “recombinant barcode read abundance (log10)” value: 0.0155 for the first, 0.0693 for the second.

“AGGAGGTAGTGGGTTCTAACCTGTTGCCTCT [AGGAGGTCTAG_LTGcore_AG_RTGcore_AG] (site AGGAGGTCTAG) (LTG core: AG, RTG core: AG)” and “AGGAGGTATTGGGTTCTAACCTGTTGCCTAG [AGGAGGTCTAG_LTGcore_AT_RTGcore_CT] (site AGGAGGTCTAG) (LTG core: AT, RTG core: CT)” are within 0.2 log units of each other in “recombinant barcode read abundance (log10)” value: 0.0957 for the first, 0.214 for the second.

Going from “AGGAGGTCCTGGGTTCTAACCTGTTGCCTAG [AGGAGGTCTAG_LTGcore_CC_RTGcore_CT] (site AGGAGGTCTAG) (LTG core: CC, RTG core: CT)” to “AGGAGGTCGTGGGTTCTAACCTGTTGCCTAG [AGGAGGTCTAG_LTGcore_CG_RTGcore_CT] (site AGGAGGTCTAG) (LTG core: CG, RTG core: CT)”, the “recombinant barcode read abundance (log10)” value falls from 0.336 to 0.0327.

Going from “AGGAGGTCTTGGGTTCTAACCTGTTGCCTCC [AGGAGGTCTAG_LTGcore_CT_RTGcore_GG] (site AGGAGGTCTAG) (LTG core: CT, RTG core: GG)” to “AGGAGGTCTTGGGTTCTAACCTGTTGCCTCT [AGGAGGTCTAG_LTGcore_CT_RTGcore_AG] (site AGGAGGTCTAG) (LTG core: CT, RTG core: AG)”, the “recombinant barcode read abundance (log10)” value rises from 0.0685 to 1.02.

First: AGGAGGTCTTGGGTTCTAACCTGTTGCCTGA [AGGAGGTCTAG_LTGcore_CT_RTGcore_TC] (site AGGAGGTCTAG) (LTG core: CT, RTG core: TC)
Second: AGGAGGTCTTGGGTTCTAACCTGTTGCCTTC [AGGAGGTCTAG_LTGcore_CT_RTGcore_GA] (site AGGAGGTCTAG) (LTG core: CT, RTG core: GA)
The “recombinant barcode read abundance (log10)” value of the first is higher: 0.643 for the first, 0.107 for the second.

Compared with “AGGAGGTGCTGGGTTCTAACCTGTTGCCTAG [AGGAGGTCTAG_LTGcore_GC_RTGcore_CT] (site AGGAGGTCTAG) (LTG core: GC, RTG core: CT)”, “AGGAGGTGCTGGGTTCTAACCTGTTGCCTGC [AGGAGGTCTAG_LTGcore_GC_RTGcore_GC] (site AGGAGGTCTAG) (LTG core: GC, RTG core: GC)” is higher in “recombinant barcode read abundance (log10)” value: 0.292 for the first, 0.911 for the second.

“AGGAGGTTATGGGTTCTAACCTGTTGCCTTA [AGGAGGTCTAG_LTGcore_TA_RTGcore_TA] (site AGGAGGTCTAG) (LTG core: TA, RTG core: TA)” and “AGGAGGTTCTGGGTTCTAACCTGTTGCCTAG [AGGAGGTCTAG_LTGcore_TC_RTGcore_CT] (site AGGAGGTCTAG) (LTG core: TC, RTG core: CT)” are within 0.2 log units of each other in “recombinant barcode read abundance (log10)” value: 0.209 for the first, 0.0562 for the second.

“AGGAGGTTTTGGGTTCTAACCTGTTGCCTAA [AGGAGGTCTAG_LTGcore_TT_RTGcore_TT] (site AGGAGGTCTAG) (LTG core: TT, RTG core: TT)” and “AGGCCTCATTGGGTTCTAACCTGTTGCCTAT [AGGCCTCCTAG_LTGcore_AT_RTGcore_AT] (site AGGCCTCCTAG) (LTG core: AT, RTG core: AT)” are within 0.2 log units of each other in “recombinant barcode read abundance (log10)” value: 0.218 for the first, 0.0616 for the second.

“AGGCCTCCGTGGGTTCTAACCTGTTGCCTAG [AGGCCTCCTAG_LTGcore_CG_RTGcore_CT] (site AGGCCTCCTAG) (LTG core: CG, RTG core: CT)” and “AGGCCTCCGTGGGTTCTAACCTGTTGCCTCG [AGGCCTCCTAG_LTGcore_CG_RTGcore_CG] (site AGGCCTCCTAG) (LTG core: CG, RTG core: CG)” are within 0.2 log units of each other in “recombinant barcode read abundance (log10)” value: 0.0631 for the first, 0.0742 for the second.

First: AGGCCTCCTTGGGTTCTAACCTGTTGCCTTA [AGGCCTCCTAG_LTGcore_CT_RTGcore_TA] (site AGGCCTCCTAG) (LTG core: CT, RTG core: TA)
Second: AGGCCTCGCTGGGTTCTAACCTGTTGCCTAG [AGGCCTCCTAG_LTGcore_GC_RTGcore_CT] (site AGGCCTCCTAG) (LTG core: GC, RTG core: CT)
The “recombinant barcode read abundance (log10)” value of the first is higher: 0.635 for the first, 0.224 for the second.

First: AGGCCTCGGTGGGTTCTAACCTGTTGCCTAG [AGGCCTCCTAG_LTGcore_GG_RTGcore_CT] (site AGGCCTCCTAG) (LTG core: GG, RTG core: CT)
Second: AGGCCTCTATGGGTTCTAACCTGTTGCCTTA [AGGCCTCCTAG_LTGcore_TA_RTGcore_TA] (site AGGCCTCCTAG) (LTG core: TA, RTG core: TA)
The “recombinant barcode read abundance (log10)” value of the first is higher: 1.04 for the first, 0.0149 for the second.

“AGGCCTCTGTGGGTTCTAACCTGTTGCCTCA [AGGCCTCCTAG_LTGcore_TG_RTGcore_TG] (site AGGCCTCCTAG) (LTG core: TG, RTG core: TG)” and “AGGCGGGAATGGGTTCTAACCTGTTGCGGTT [AGGCGGGCTCC_LTGcore_AA_RTGcore_AA] (site AGGCGGGCTCC) (LTG core: AA, RTG core: AA)” are within 0.2 log units of each other in “recombinant barcode read abundance (log10)” value: 0.186 for the first, 0.154 for the second.

First: AGGCGGGCCTGGGTTCTAACCTGTTGCGGAG [AGGCGGGCTCC_LTGcore_CC_RTGcore_CT] (site AGGCGGGCTCC) (LTG core: CC, RTG core: CT)
Second: AGGCGGGCGTGGGTTCTAACCTGTTGCGGAG [AGGCGGGCTCC_LTGcore_CG_RTGcore_CT] (site AGGCGGGCTCC) (LTG core: CG, RTG core: CT)
The “recombinant barcode read abundance (log10)” value of the first is lower: 1.48 for the first, 2.17 for the second.

Compared with “AGGCGGGCTTGGGTTCTAACCTGTTGCGGAG [AGGCGGGCTCC_LTGcore_CT_RTGcore_CT] (site AGGCGGGCTCC) (LTG core: CT, RTG core: CT)”, “AGGCGGGGCTGGGTTCTAACCTGTTGCGGGC [AGGCGGGCTCC_LTGcore_GC_RTGcore_GC] (site AGGCGGGCTCC) (LTG core: GC, RTG core: GC)” is lower in “recombinant barcode read abundance (log10)” value: 1.66 for the first, 0.0608 for the second.

“AGGCGGGTGTGGGTTCTAACCTGTTGCGGAG [AGGCGGGCTCC_LTGcore_TG_RTGcore_CT] (site AGGCGGGCTCC) (LTG core: TG, RTG core: CT)” and “AGGCGGTAGTGGGTTCTAACCTGTTGCTTAG [AGGCGGTCTAA_LTGcore_AG_RTGcore_CT] (site AGGCGGTCTAA) (LTG core: AG, RTG core: CT)” are within 0.2 log units of each other in “recombinant barcode read abundance (log10)” value: 0.159 for the first, 0.187 for the second.

First: AGGCGGTAGTGGGTTCTAACCTGTTGCTTCT [AGGCGGTCTAA_LTGcore_AG_RTGcore_AG] (site AGGCGGTCTAA) (LTG core: AG, RTG core: AG)
Second: AGGCGGTCTTGGGTTCTAACCTGTTGCTTAG [AGGCGGTCTAA_LTGcore_CT_RTGcore_CT] (site AGGCGGTCTAA) (LTG core: CT, RTG core: CT)
The “recombinant barcode read abundance (log10)” value of the first is lower: 0.197 for the first, 2.29 for the second.

“AGGCGGTCTTGGGTTCTAACCTGTTGCTTAT [AGGCGGTCTAA_LTGcore_CT_RTGcore_AT] (site AGGCGGTCTAA) (LTG core: CT, RTG core: AT)” and “AGGCGGTCTTGGGTTCTAACCTGTTGCTTCT [AGGCGGTCTAA_LTGcore_CT_RTGcore_AG] (site AGGCGGTCTAA) (LTG core: CT, RTG core: AG)” are within 0.2 log units of each other in “recombinant barcode read abundance (log10)” value: 0.144 for the first, 0.284 for the second.

First: AGGCGGTCTTGGGTTCTAACCTGTTGCTTTC [AGGCGGTCTAA_LTGcore_CT_RTGcore_GA] (site AGGCGGTCTAA) (LTG core: CT, RTG core: GA)
Second: AGGCGGTCTTGGGTTCTAACCTGTTGCTTTG [AGGCGGTCTAA_LTGcore_CT_RTGcore_CA] (site AGGCGGTCTAA) (LTG core: CT, RTG core: CA)
The “recombinant barcode read abundance (log10)” value of the first is higher: 0.389 for the first, 0.0581 for the second.

“AGGCGGTGCTGGGTTCTAACCTGTTGCTTGC [AGGCGGTCTAA_LTGcore_GC_RTGcore_GC] (site AGGCGGTCTAA) (LTG core: GC, RTG core: GC)” and “AGGCGGTGGTGGGTTCTAACCTGTTGCTTAG [AGGCGGTCTAA_LTGcore_GG_RTGcore_CT] (site AGGCGGTCTAA) (LTG core: GG, RTG core: CT)” are within 0.2 log units of each other in “recombinant barcode read abundance (log10)” value: 0.104 for the first, 0.074 for the second.

“AGGCGGTGGTGGGTTCTAACCTGTTGCTTCC [AGGCGGTCTAA_LTGcore_GG_RTGcore_GG] (site AGGCGGTCTAA) (LTG core: GG, RTG core: GG)” and “AGGCGGTTGTGGGTTCTAACCTGTTGCTTCA [AGGCGGTCTAA_LTGcore_TG_RTGcore_TG] (site AGGCGGTCTAA) (LTG core: TG, RTG core: TG)” are within 0.2 log units of each other in “recombinant barcode read abundance (log10)” value: 0.0144 for the first, 0.0951 for the second.

For “AGTCTTAAATGGGTTCTAACCTGTTGCCATT [AGTCTTACTTG_LTGcore_AA_RTGcore_AA] (site AGTCTTACTTG) (LTG core: AA, RTG core: AA)”, the “recombinant barcode read abundance (log10)” value was 0.0761.
